# Earlier results in patent publication US12379360B2, “Detection system for an electronic nose allowing a physicochemical classification of odours and electronic nose comprising such a system” (COMMISSARIAT À L'ÉNERGIE ATOMIQUE ET AUX ÉNERGIES …, priority 2019, dated 2025).
# What was measured:
# [1] = pure compound
# [2] = n-octanol/water partition coefficient
# [3] = scale of R. M. Sweet and D. Eisenberg, reference [4]
structure (smiles),measurement,setting,value
"CN(C)C [TMA, trimethylamine]",n (refractive index),[1],1.3631
same,logP,[2],0.3
NC(=O)C[C@H](N)C(=O)O [asparagine],hydrophobicity index,[3],−0.74
O=C(O)[C@@H]1CCCN1 [proline],hydrophobicity index,[3],0.12
"CSC [DMS, dimethylsulphide]",n (refractive index),[1],1.4487
same,logP,[2],2.7
"NCCCCCN [DAP, 1,5-diaminopentane]",n (refractive index),[1],1.458
same,logP,[2],−0.6
"CCCSCCC [DPS, dipropylsulphide]",n (refractive index),[1],1.435
same,logP,[2],0.9
"CCCCCN [n-PA, n-pentylamine]",n (refractive index),[1],1.411
same,logP,[2],1.5
"NCCCCN [DAB, 1,4-diaminobutane]",n (refractive index),[1],1.457
same,logP,[2],−0.9
"CCN(CC)CC [TEA, triethylamine]",n (refractive index),[1],1.401
same,logP,[2],1.4
